These results are taken from patent US20190331666A1, “METHODS FOR DRUG DISCOVERY USING STEM CELL-DERIVED SCHWANN CELLS” (MEMORIAL SLOAN-KETTERING CANCER CENTER, priority 2016, published 2019).

Series [1] concerns STZ-treated C57BL6 mice. Kind of series: Blood glucose in STZ-treated diabetic mice. To be noted: oral in chow ~300 mg/kg daily. The series is classed as in vivo. On the procedure:
(§1) All procedures were performed following NIH guidelines, and were approved by the local Institutional Animal Care and Use Committee (IACUC). 3-8 weeks old male C57BL6 mice were treated with one dose IP injection of streptozotocin (180 mg/kg, sigma, 85882) to induce pancreatic beta cell death. Blood glucose levels was measured using a standard glucometer (Freestyle Lite) in weekly intervals starting at one week post-treatment, by drawing a drop of blood from tail tip. BP treatment was initiated one week post-streptozotocin treatment. BP was mixed with standard chow at 1.63 mg/gram of chow to be administered orally at ˜300 mg/kg daily. The dose was calculated on the basis of average daily food intake (5.5 gram/day) and initial body weight (30 grams).

For series [2], the system named is STZ-treated C57BL6 mice. In words: Transmission electron microscopy of myelin in sciatic nerves of STZ-treated mice. In kind it is in vivo. To be noted: oral in chow ~300 mg/kg daily. As to the method:
as §1

In series [3] the test system is high glucose treated hESC-SCs. In words: High content screening for drugs reversing glucose-mediated SC cytotoxicity (Prestwick library). In kind it is cell-based, human. To be noted: 30 mM glucose, compounds at 1 μM, 72 hours. On the procedure: The chemical compound screening was performed using the Prestwick Chemical Library®. RFP-labeled hESC-SCs were plated in 384 well plates (1,000/well) and treated with 30 mM glucose immediately before addition of the compounds. The compounds were added at 1 μM concentration. 72 hours later, the plates were treated with DAPI for ten minutes, washed twice and fixed for total plate imaging. The number of viable cells was quantified for each well by counting the number of DAPI negative, RFP positive cells. The percentage of dead cells were calculated for each well by dividing the number of DAPI positive cells by total RFP positive cells.
Data are presented as mean±SEM and were derived from at least 3 independent experiments. Statistical analysis was performed using the Student t-test (comparing 2 groups) or ANOVA with Dunnett test (comparing multiple groups against control). Distribution of the raw data approximated normal distribution (Kolmogorov Smirnov normality test) for data with sufficient number of replicates to test for normality. Survival analysis was performed using log rank (Mantel-Cox) test. Z-scores for primary hits were calculated as Z=(x−μ)/σ. X is the migration score value and is 3 for all hit compounds. μ is the mean migration score value and a is the standard deviation for all compounds and DMSO controls

The test system of series [4] is glucose uptake in hESC-SCs. In words: Glucose (2DG) uptake in hESC-SCs. The series is classed as cell-based, human. To be noted: high glucose. The source says:
(§2) High glucose, low glucose and drug treated SCs and sensory neurons were subjected to biochemical assays for Sorbitol (abcam, ab118968), glucose (abcam, ab65333), Pyruvate (abcam, ab65342) and 2DG uptake (abcam, ab136955) measurements according to manufacturer's instructions. Data was normalizing according to cell numbers and averaged over 3-6 biological replicates.

In series [5] the test system is STZ-treated C57BL6 mice. Kind of series: TUNEL staining of sciatic nerves of STZ-treated mice. The series is classed as in vivo. To be noted: oral in chow ~300 mg/kg daily. As to the method:
as §1

The subject of series [6] is patients suffering from neuropathic pain. To be noted: cited from earlier work.
For series [7], the system named is intracellular glucose levels in hESC-SCs. Kind of series: Intracellular glucose measurement in hESC-SCs. In kind it is cell-based, human. To be noted: high glucose.
Excerpt: as §2

The subject of series [8] is pyruvate levels in hESC-SCs. In words: Pyruvate measurement in hESC-SCs. In kind it is cell-based, human. To be noted: high glucose.
Excerpt: as §2

The test system of series [9] is sorbitol levels in hESC-SCs. Kind of series: Sorbitol measurement in hESC-SCs. In kind it is cell-based, human. To be noted: high glucose treated hESC-SCs. As to the method:
High glucose, low glucose and drug treated SCs and sensory neurons were subjected to biochemical assays for Sorbitol (abcam, ab118968), glucose (abcam, ab65333), Pyruvate (abcam, ab65342) and 2DG uptake (abcam, ab136955) measurements according to manufacturer's instructions. Data was normalizing according to cell numbers and averaged over 3-6 biological replicates. For validation of the selected hit compound (Bupropion HCL, Sigma, B102), the cells were treated with various concentrations of the compound for dose response analysis. The highest non-toxic dose (0.7 μM-based on optimal sorbitol reduction and viability) was used for follow-up experiments.

Series [10] concerns high glucose treated hESC-SCs. Kind of series: Dose response validation, SC viability / cell death (LDH). The series is classed as cell-based, human. As to the method: To monitor the viability of SCs, cells were assayed for LDH activity using CytoTox 96 cytotoxicity assay kit (Promega, G1780). Briefly, the cells were plated in 96 well plates at 30,000 cells/cm^2. The supernatant and the cell lysate is harvested 24 hours later and assayed for LDH activity using a plate reader (490 nm absorbance). Viability was calculated by dividing the LDH signal of the lysate by total LDH signal (from lysate plus supernatant). The cells were cultured in Schwann cell medium (Sciencell, 1701) on PO/LM/FN coated dishes during the assay. For validation of the selected hit compound (Bupropion HCL, Sigma, B102), the cells were treated with various concentrations of the compound for dose response analysis. The highest non-toxic dose (0.7 μM-based on optimal sorbitol reduction and viability) was used for follow-up experiments.

Series [11] has as its system STZ-treated C57BL6 mice. In words: Mouse thermal sensitivity (hot plate) test in STZ-treated mice. The series is classed as in vivo. To be noted: seven and eight weeks post STZ, oral in chow ~300 mg/kg daily. As to the method: as §1, with “grams). Thermal nociception was assessed using the hot plate test. The hot plate (Ugo Basile 35100) consisted of a metal surface (55° C.) with a transparent plexiglass cylinder to contain the mouse. […] Typical baseline latencies are 5-10 seconds, with maximal latencies of 30 seconds.” for “grams).”

Series [12] relates to rodent GSK3β homologs. To be noted: cited from earlier work.

For the molecule `CC(NC(C)(C)C)C(=O)c1cccc(Cl)c1.Cl` (stereo not drawn) [BP, 2-(tert-butylamino)-1-(3-chlorophenyl)propan-1-one;hydrochloride], in series [1], the blood glucose levels result is “does not affect glucose levels”. Moreover, in series [2], the “percentage of damaged myelin in the sciatic nerves” value is “significantly reduced”. The “enhancing the viability of high glucose treated hESC-SCs (primary screen)” value in [3] is reported as “most potent compound”. Also, in [4], the glucose uptake entry is listed as “without affecting”. Also, the “TUNEL+ apoptotic cells in the sciatic nerves” value in series [5] is given as “significantly fewer apoptotic cells”. Also, in [6], the “benefit in the treatment of neuropathic pain” value is reported as “some benefit”. The intracellular glucose levels entry in series [7] is listed as “reduced”. In series [8], the levels of pyruvate result is “increased”. In addition, in series [9] (Homo sapiens, read-out: IC50 (dose-response in rescuing SC viability and in decreasing sorbitol levels)), the IC50 came out at 263 nM. The “highest non-toxic dose (based on optimal sorbitol reduction and viability)” value in series [9] came out at 0.7 µM. Also, the “dose of maximum effect” value in [9] (dose used for all further studies) is 0.7. Also, the “levels inducing gradual dose-dependent toxicity” value in series [10] (hESC-SCs) is recorded as “above 2 μM”. For the same molecule, the “rescuing SC viability” value in [10] (high glucose treated hESC-SCs, various concentrations) is “dose-response”. For the same molecule, in series [11], the “response time to thermal stimulation (latency of hind paw withdrawal)” value is “significantly improved response time”.

For the molecule `Cc1c[nH]c(-c2cnc(NCCNc3ccc(C#N)cn3)nc2-c2ccc(Cl)cc2Cl)n1` [CHIR99021, 6-(2-(4-(2,4-dichlorophenyl)-5-(4-methyl-1H-imidazol-2-yl)pyrimidin-2-ylamino)ethylamino)nicotinonitrile], in [12], the “IC50 values against rodent GSK3β homologs” value is given as “nanomolar”.
